Laboratory results taken from article PMC4981720, “Identification of Multiple Cryptococcal Fungicidal Drug Targets by Combined Gene Dosing and Drug Affinity Responsive Target Stability Screening” (mBio, 2016).

Biological target: T1, malate dehydrogenase (Mdh3) (Cryptococcus neoformans, UniProt J9VXN5)
T1 construct: gene CNAG_03225; Mdh3-MBP fusion protein expressed in S. cerevisiae
T1 sequence (J9VXN5 1-338): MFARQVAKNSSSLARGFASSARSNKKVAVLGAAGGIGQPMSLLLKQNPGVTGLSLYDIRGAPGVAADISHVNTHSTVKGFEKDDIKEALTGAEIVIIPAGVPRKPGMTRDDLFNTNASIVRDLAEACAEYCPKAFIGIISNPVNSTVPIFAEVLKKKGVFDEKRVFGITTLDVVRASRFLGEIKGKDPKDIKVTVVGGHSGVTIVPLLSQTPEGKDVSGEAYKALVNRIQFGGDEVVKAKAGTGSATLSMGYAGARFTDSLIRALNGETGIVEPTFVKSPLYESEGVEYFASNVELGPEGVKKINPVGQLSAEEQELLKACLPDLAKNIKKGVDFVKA
Experiment: steady-state enzyme kinetics with recombinant Mdh3-MBP, NAD turnover at […] nm, with or without […] bithionol
Format: biochemical

- Ki: 3 µM
SMILES: Oc1c(Cl)cc(Cl)cc1Sc1cc(Cl)cc(Cl)c1O [bithionol]
